Values quoted from earlier work as cited in patent US12134602B2 (Yale University, priority 2011, dated 2024).

Settings: in vivo

For `C/C=C1\[C@H]2C=C(C)C[C@]1(N)c1ccc(=O)[nH]c1C2` [(−)-Huperzine A, (−)-huperzine A], the tolerability is listed as “well tolerated”.
